Data reported in US10039753B2, “Imidazo[4,5-c]quinoline and imidazo[4,5-c][1,5]naphthyridine derivatives as LRRK2 inhibitors” (Pfizer Inc., priority 2015, dated 2018).
Like-named read-outs stand apart in the source and are kept apart here.

Legend:
mutant G2019S LRRK2 = mutant G2019S LRRK2 (Homo sapiens, UniProt Q5S007, G2019S); test: LRRK2 Assay, Format 1 (Lantha Screen), G2019S mutant
[1] = target: T1, GST-tagged truncated LRRK2 (Homo sapiens, UniProt Q5S007); test: LRRK2 Assay, Format 1 (Lantha Screen), WT; type: biochemical
T1 construct: GST-tagged truncated LRRK2 from Invitrogen (Cat # PV4874); GST; purchased Invitrogen PV4874
Description: LRRK2 kinase activity was measured using Lantha Screen technology from Invitrogen. GST-tagged truncated LRRK2 from Invitrogen (Cat # PV4874) was incubated with a fluorescein-labeled peptide substrate based upon ezrin/radixin/moesin (ERM), also known as LRRKtide (Invitrogen cat # PR8976A), in the presence of a dose response of compound. Upon completion, the assay was stopped and detected with a terbium labeled anti-phospho-ERM antibody (Invitrogen, cat # PR8975A). […] Aliquots (3.5 μL) of the 100% DMSO dose response were mixed with 46.5 μL water then 1 μL of this mixture was added to the 3 μL substrate mix in the 384-well plate. The kinase reaction was started with 3 μL of a working solution of LRRK2 enzyme at a concentration of 4 μg/mL. […] The reaction was allowed to progress at room temperature for two hours and then stopped with the addition of 7 μL of detection buffer (20 mM Tris pH 7.6, 0.01% NP-40, 0.02% NaN3, 6 mM EDTA with 2 nM terbium labeled anti-phospho-ERM).

[2] = Format 1, wild-type LRRK2, geometric mean of 2-4 determinations unless footnoted (a: ≥5 determinations; b: single determination; c: determined on trifluoroacetate salt)
[3] = 100 nM LRRKtide, 50 μM ATP, 1.7 μg/mL LRRK2 enzyme, two hours at room temperature

Chain of mutant G2019S LRRK2 (Q5S007 970-2527 G2019S limits assumed): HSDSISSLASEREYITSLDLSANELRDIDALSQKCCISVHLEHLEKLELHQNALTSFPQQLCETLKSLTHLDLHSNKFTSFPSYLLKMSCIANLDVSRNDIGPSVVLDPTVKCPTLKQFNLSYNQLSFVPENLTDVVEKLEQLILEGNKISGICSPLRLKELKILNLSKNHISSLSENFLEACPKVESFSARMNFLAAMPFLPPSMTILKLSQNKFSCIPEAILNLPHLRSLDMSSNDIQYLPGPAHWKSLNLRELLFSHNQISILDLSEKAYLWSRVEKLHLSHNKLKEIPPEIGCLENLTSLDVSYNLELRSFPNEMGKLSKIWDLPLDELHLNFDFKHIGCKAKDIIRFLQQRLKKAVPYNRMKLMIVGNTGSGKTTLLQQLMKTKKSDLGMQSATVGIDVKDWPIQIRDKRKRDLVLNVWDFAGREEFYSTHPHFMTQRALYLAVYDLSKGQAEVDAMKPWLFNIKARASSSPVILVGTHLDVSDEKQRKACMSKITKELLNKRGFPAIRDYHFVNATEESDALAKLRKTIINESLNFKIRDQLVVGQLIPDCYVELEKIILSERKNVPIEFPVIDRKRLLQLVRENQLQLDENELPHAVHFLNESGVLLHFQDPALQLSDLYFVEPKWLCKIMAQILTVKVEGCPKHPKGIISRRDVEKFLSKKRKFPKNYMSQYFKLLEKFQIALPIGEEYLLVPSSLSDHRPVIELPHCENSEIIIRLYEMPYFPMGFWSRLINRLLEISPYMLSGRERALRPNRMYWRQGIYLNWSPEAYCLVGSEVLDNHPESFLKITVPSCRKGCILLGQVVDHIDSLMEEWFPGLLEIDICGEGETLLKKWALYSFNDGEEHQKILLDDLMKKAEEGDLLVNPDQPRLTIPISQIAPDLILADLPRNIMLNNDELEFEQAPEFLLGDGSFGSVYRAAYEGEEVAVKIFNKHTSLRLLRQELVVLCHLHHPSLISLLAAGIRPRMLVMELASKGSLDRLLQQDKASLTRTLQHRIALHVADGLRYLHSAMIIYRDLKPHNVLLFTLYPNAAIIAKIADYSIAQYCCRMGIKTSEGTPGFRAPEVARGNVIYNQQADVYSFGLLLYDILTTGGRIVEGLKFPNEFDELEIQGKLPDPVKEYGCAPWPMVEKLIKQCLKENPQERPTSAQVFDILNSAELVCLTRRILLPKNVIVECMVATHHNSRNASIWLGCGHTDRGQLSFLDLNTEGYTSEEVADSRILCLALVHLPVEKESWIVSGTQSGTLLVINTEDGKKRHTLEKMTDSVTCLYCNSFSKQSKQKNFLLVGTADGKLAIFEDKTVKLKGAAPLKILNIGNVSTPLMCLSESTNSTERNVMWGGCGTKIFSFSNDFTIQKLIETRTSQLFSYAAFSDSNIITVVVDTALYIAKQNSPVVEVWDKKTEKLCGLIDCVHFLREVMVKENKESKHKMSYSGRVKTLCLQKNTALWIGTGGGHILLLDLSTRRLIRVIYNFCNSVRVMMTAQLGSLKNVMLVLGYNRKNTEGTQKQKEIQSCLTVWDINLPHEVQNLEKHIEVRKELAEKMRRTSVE
T1 sequence (Q5S007 970-2527 limits assumed): as the sequence (Q5S007 970-2527 G2019S limits assumed) above, with S1050G counted along it

IC50 (mutant G2019S LRRK2) | IC50 [1, 2] | IC50 [1, 3] | IC50 (mutant G2019S LRRK2; read-out: LRRK2, Format 1 G2019S IC50, Format 1, G2019S mutant LRRK2, geometric mean of 2-4 determinations unless footnoted (a: ≥5 determinations; b: single determination; c: determined on trifluoroacetate salt)) | Compound
55.5 nM | 81 nM | – | – | Cc1nc2cnc3ccc(C#N)cc3c2n1[C@H]1CCO[C@@H](C)C1 (racemic) [Example 19, 2-methyl-1-(cis-2-methyltetrahydro-2H-pyran-4-yl)-1H-imidazo[4,5-c]quinoline-8-carbonitrile]
4.5 nM | 7.5 nM | – | – | C[C@H]1C[C@@H](n2c(Cc3ccon3)nc3cnc4ccc(C#N)cc4c32)CCO1 (racemic) [Example 21, 1-(cis-2-methyltetrahydro-2H-pyran-4-yl)-2-(1,2-oxazol-3-ylmethyl)-1H-imidazo[4,5-c]quinoline-8-carbonitrile]
153 nM | 199 nM | – | – | C[C@@H]1C[C@@H](n2c(Cc3ccon3)nc3cnc4ccc(C#N)cc4c32)CCO1 (racemic) [Example 23, 1-(trans-2-methyltetrahydro-2H-pyran-4-yl)-2-(1,2-oxazol-3-ylmethyl)-1H-imidazo[4,5-c]quinoline-8-carbonitrile]
81.2 nM | 152 nM | – | – | O[C@@H]1CCC[C@@H](n2c(Cc3ccon3)nc3cnc4ccccc4c32)C1 (racemic) [Example 49, trans-3-[2-(1,2-oxazol-3-ylmethyl)-1H-imidazo[4,5-c]quinolin-1-yl]cyclohexanol]
5.2 nM | 10 nM | – | – | C[C@H]1C[C@@H](n2c(Cc3cscn3)nc3cnc4ccc(Br)cc4c32)CCO1 (racemic) [Example 56, 8-bromo-1-(cis-2-methyltetrahydro-2H-pyran-4-yl)-2-(1,3-thiazol-4-ylmethyl)-1H-imidazo[4,5-c]quinoline]
8.2 nM | 16.8 nM | – | – | Cc1cc(Cc2nc3cnc4ccc(Br)cc4c3n2[C@H]2CCO[C@@H](C)C2)no1 (racemic) [Example 58, 8-bromo-2-[(5-methyl-1,2-oxazol-3-yl)methyl]-1-(cis-2-methyltetrahydro-2H-pyran-4-yl)-1H-imidazo[4,5-c]quinoline]
16.4 nM | 32.5 nM | – | – | CC[C@H]1C[C@@H](n2c(Cc3ccon3)nc3cnc4ccc(Br)cc4c32)CCO1 (racemic) [Example 66, 8-bromo-1-(cis-2-ethyltetrahydro-2H-pyran-4-yl)-2-(1,2-oxazol-3-ylmethyl)-1H-imidazo[4,5-c]quinoline]
5.6 nM | 7.6 nM | – | – | C[C@H]1C[C@@H](n2c(Cc3cn4ncsc4n3)nc3cnc4ccc(F)cc4c32)CCO1 (racemic) [Example 86, 8-fluoro-2-(imidazo[2,1-b][1,3,4]thiadiazol-6-ylmethyl)-1-(cis-2-methyltetrahydro-2H-pyran-4-yl)-1H-imidazo[4,5-c]quinoline]
12.2 nM | 18.7 nM | – | – | Cc1nc2cnc3ccccc3c2n1[C@H]1CCO[C@@H](CC#N)C1 (racemic) [Example 91, [cis-4-(2-methyl-1H-imidazo[4,5-c]quinolin-1-yl)tetrahydro-2H-pyran-2-yl]acetonitrile]
14.4 nM | 39.3 nM | – | – | COc1ccc2ncc3nc(Cc4cc(C)on4)n([C@@H]4CCO[C@H](C)C4)c3c2c1 (single isomer, unassigned) [Example 1]
2.4 nM | 4.5 nM | – | – | C[C@@H]1C[C@H](n2c(Cc3ccon3)nc3cnc4ccc(Br)cc4c32)CCO1 (single isomer, unassigned) [Example 12]
132 nM | 279 nM | – | – | C[C@H]1C[C@@H](n2c(Cc3cn4ncsc4n3)nc3cnc4ccc(Cl)cc4c32)CCO1 (single isomer, unassigned) [Example 64]
1.8 nM | 2.8 nM | – | – | C[C@@H]1C[C@H](n2c(Cn3cncn3)nc3cnc4ccc(Cl)cc4c32)CCO1 (single isomer, unassigned) [Example 65]
478 nM | 1260 nM | – | – | COc1ccc2ncc3nc(Cc4cc(C)on4)n([C@H]4CCO[C@@H](C)C4)c3c2c1 (single isomer, unassigned) [Example C12]
226 nM | – | 510 nM | – | C[C@H]1C[C@@H](n2c(Cc3ccon3)nc3cnc4ccc(Br)cc4c32)CCO1 (single isomer, unassigned) [enantiomer of Example 12]
327 nM | – | 353 nM | – | Cc1cc(Cc2nc3cnc4ccc(Cl)cc4c3n2C2CCOC(CC#N)C2)no1 (single isomer, unassigned; ent-2) [enantiomer of Example 134, [cis-4-{8-chloro-2-[(5-methyl-1,2-oxazol-3-yl)methyl]-1H-imidazo[4,5-c]quinolin-1-yl}tetrahydro-2H-pyran-2-yl]acetonitrile, ENT-2]
1220 nM | – | 1450 nM | – | Cc1nc(Cc2nc3cnc4ccc(Cl)cc4c3n2C2CCOC(CC#N)C2)no1 (single isomer, unassigned; ent-2) [enantiomer of Example 135, [cis-4-{8-chloro-2-[(5-methyl-1,2,4-oxadiazol-3-yl)methyl]-1H-imidazo[4,5-c]quinolin-1-yl}tetrahydro-2H-pyran-2-yl]acetonitrile, ENT-2]
5.6 nM | 6.8 nM | – | – | COc1ccc(Cc2nc3cnc4ccc(Cl)cc4c3n2[C@@H]2CCO[C@H](C)C2)nc1 [Example 2, 8-Chloro-2-[(5-methoxypyridin-2-yl)methyl]-1-[(2R,4R)-2-methyltetrahydro-2H-pyran-4-yl]-1H-imidazo[4,5-c]quinoline]
5.1 nM | 4.9 nM | – | – | Cc1cc(Cc2nc3cnc4ccc(C#N)cc4c3n2[C@@H]2CCO[C@H](C)C2)no1 [Example 3, 2-[(5-Methyl-1,2-oxazol-3-yl)methyl]-1-[(2R,4R)-2-methyltetrahydro-2H-pyran-4-yl]-1H-imidazo[4,5-c]quinoline-8-carbonitrile]
168 nM | 172 nM | – | – | Cc1nc2cnc3ccc(Br)cc3c2n1[C@H]1CC[C@@H](F)C1 [Example 6, 8-Bromo-1-[(1S,3R)-3-fluorocyclopentyl]-2-methyl-1H-imidazo[4,5-c]quinoline]
3.1 nM | 4.4 nM | – | – | C[C@@H]1C[C@H](n2c(Cc3cn4ncsc4n3)nc3cnc4ccc(Cl)cc4c32)CCO1 [Example 8, 8-Chloro-2-(imidazo[2,1-b][1,3,4]thiadiazol-6-ylmethyl)-1-[(2R,4R)-2-methyltetrahydro-2H-pyran-4-yl]-1H-imidazo[4,5-c]quinoline]
6.4 nM | 6.3 nM | – | – | C[C@@H]1C[C@H](n2c(CC#N)nc3cnc4ccc(Cl)cc4c32)CCO1 [Example 9, {8-Chloro-1-[(2R,4R)-2-methyltetrahydro-2H-pyran-4-yl]-1H-imidazo[4,5-c]quinolin-2-yl}acetonitrile]
– | 5 nM | – | 3 nM | C[C@@H]1C[C@H](n2c(Cc3cscn3)nc3cnc4ccc(Cl)cc4c32)CCO1 [Example 10, 8-Chloro-1-[(2R,4R)-2-methyltetrahydro-2H-pyran-4-yl]-2-(1,3-thiazol-4-ylmethyl)(4-^2H)-1H-imidazo[4,5-c]quinoline]
6.4 nM | 10.3 nM | – | – | C[C@@H]1C[C@H](n2c(Cc3ncon3)nc3cnc4ccc(Cl)cc4c32)CCO1 [Example 13, 8-chloro-1-[(2R,4R)-2-methyltetrahydro-2H-pyran-4-yl]-2-(1,2,4-oxadiazol-3-ylmethyl)-1H-imidazo[4,5-c]quinoline]
191 nM | 160 nM | – | – | Cc1nc2cnc3ccc(C#N)cc3c2n1C1CCOCC1 [Example 14, 2-methyl-1-(tetrahydro-2H-pyran-4-yl)-1H-imidazo[4,5-c]quinoline-8-carbonitrile]
